Assay results from patent publication USRE47512E1, “Imidazole and imidazolium resins and methods for preparing curable imidazolium antimicrobial resins” (DENTSPLY SIRONA INC., priority 2011, dated 2019).

Assay: Solubility of resins @ 37° C.
Assay type: physicochemical

Substance | Solubility @ 37° C. in water (Table I) | Solubility @ 37° C. in water/ethanol (50:50, w/w %) (Table I) | Solubility @ 37° C. in EtOH (Table II, EtOH) | Solubility @ 37° C. in water/ethanol (50:50, w/w %) (Table II)
HEMA-based Monoimidazole-dimethacrylate Resin [Example 3a] | partially | soluble | – | –
Isosorbide-based Bisimidazoliumbromide-dimethacrylate Resin [Example 5] | – | – | soluble | soluble
Isosorbide-based Bisimidazole-dimethacrylate Resin [Example 1] | partially | soluble | – | –
TCDC-based Bisimidazole-dimethacrylate Resin [Example 2] | partially | soluble | – | –
